Test results taken from PubChem BioAssay AID2060910 (Molecular Pharmacology Branch, DTP, NCI, 2025).
pIC50: −log10 of the molar value. Blank lines part the entries; values can stand above or below the compound they belong to.

System: 242566-281-R-J2-PDC complex spheroid viability
Assay: Anticancer human tumor 242566-281-R-J2-PDC patient-derived pancreatic carcinoma cell line growth inhibition [RAS]
Conditions: for pIC50: curve of first compound; for viability, T/C: stronger effect = lower value
How it was run: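 Agents were tested in combination matrices in half-log decrements from a top concentration at or near clinical Cmax (10 microM if undetermined). Targets were multi-cell spheroids of tumour lines plus HUVEC and MSC stromal cells.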

[1] = second compound 0.000949 µM, first compound 0.0316 µM
[2] = second compound 0.000949 µM, first compound 0.1 µM
[3] = second compound 0.000949 µM, first compound 0.316 µM
[4] = second compound 0.000949 µM, first compound 1 µM
[5] = second compound 0.003 µM, first compound 0.0316 µM
[6] = second compound 0.003 µM, first compound 0.1 µM
[7] = second compound 0.003 µM, first compound 0.316 µM
[8] = second compound 0.003 µM, first compound 1 µM
[9] = second compound 0.00949 µM, first compound 0.0316 µM
[10] = second compound 0.00949 µM, first compound 0.1 µM
[11] = second compound 0.00949 µM, first compound 0.316 µM
[12] = second compound 0.00949 µM, first compound 1 µM
[13] = second compound 0.03 µM, first compound 0.0316 µM
[14] = second compound 0.03 µM, first compound 0.1 µM
[15] = second compound 0.03 µM, first compound 0.316 µM
[16] = second compound 0.03 µM, first compound 1 µM
[17] = second compound 0.0949 µM, first compound 0.0316 µM
[18] = second compound 0.0949 µM, first compound 0.1 µM
[19] = second compound 0.0949 µM, first compound 0.316 µM
[20] = second compound 0.0949 µM, first compound 1 µM
[21] = second compound 0.3 µM, first compound 0.0316 µM
[22] = second compound 0.3 µM, first compound 0.1 µM
[23] = second compound 0.3 µM, first compound 0.316 µM
[24] = second compound 0.3 µM, first compound 1 µM
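Note: spheroids exposed to compound for 7 days before readout.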
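Throughout, for viability, T/C: 100% = DMSO vehicle control wells.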

pIC50 (second compound 0.000949 µM): < 5.00 | pIC50 (second compound 0.003 µM): < 5.00 | pIC50 (second compound 0.00949 µM): < 5.00 | pIC50 (second compound 0.03 µM): < 5.00 | pIC50 (second compound 0.0949 µM): < 5.00 | pIC50 (second compound 0.3 µM): < 5.00
SMILES: CC(C)NCC(C(=O)N1CCN(c2ncnc3c2C(C)CC3O)CC1)c1ccc(Cl)cc1 (centres undefined) + CCn1c(-c2cccnc2C(C)OC)c2c3cc(ccc31)N1CCOC(CC(NC(=O)C(C(C)C)N(C)C(=O)C3(F)CCN(C(=O)C#CC(C)(C)N(C)C)CC3)C(=O)N3CCCC(N3)C(=O)OCC(C)(C)C2)C1
viability, T/C [1]: 92% | viability, T/C [2]: 98.4% | viability, T/C [3]: 84.9% | viability, T/C [4]: 92.2% | viability, T/C (second compound 0.000949 µM, first compound 3.16 µM): 96.8% | viability, T/C (second compound 0.000949 µM, first compound 10 µM): 56.7% | viability, T/C [5]: 111% | viability, T/C [6]: 73.6% | viability, T/C [7]: 95.2% | viability, T/C [8]: 81.6% | viability, T/C (second compound 0.003 µM, first compound 3.16 µM): 84.9% | viability, T/C (second compound 0.003 µM, first compound 10 µM): 55.5% | viability, T/C [9]: 109% | viability, T/C [10]: 70.8% | viability, T/C [11]: 97.5% | viability, T/C [12]: 79.2% | viability, T/C (second compound 0.00949 µM, first compound 3.16 µM): 74.1% | viability, T/C (second compound 0.00949 µM, first compound 10 µM): 56.4% | viability, T/C [13]: 96% | viability, T/C [14]: 91.2% | viability, T/C [15]: 93.6% | viability, T/C [16]: 79.2% | viability, T/C (second compound 0.03 µM, first compound 3.16 µM): 69.8% | viability, T/C (second compound 0.03 µM, first compound 10 µM): 72.7% | viability, T/C [17]: 88.9% | viability, T/C [18]: 87.5% | viability, T/C [19]: 104% | viability, T/C [20]: 97.7% | viability, T/C (second compound 0.0949 µM, first compound 3.16 µM): 65.9% | viability, T/C (second compound 0.0949 µM, first compound 10 µM): 59.9% | viability, T/C [21]: 85.8% | viability, T/C [22]: 88.7% | viability, T/C [23]: 85.4% | viability, T/C [24]: 74% | viability, T/C (second compound 0.3 µM, first compound 3.16 µM): 62.3% | viability, T/C (second compound 0.3 µM, first compound 10 µM): 52.3%

pIC50 (second compound 0.000949 µM): < 6.00 | pIC50 (second compound 0.003 µM): < 6.00 | pIC50 (second compound 0.00949 µM): < 6.00 | pIC50 (second compound 0.03 µM): < 6.00 | pIC50 (second compound 0.0949 µM): < 6.00 | pIC50 (second compound 0.3 µM): < 6.00
SMILES: C=CC(=O)N1CCN(c2nc(OCC3CCCN3C)nc3c(F)c(-c4nc(N)cc(C)c4C(F)(F)F)c(Cl)cc23)C(C)C1 (centres undefined) + CCn1c(-c2cccnc2C(C)OC)c2c3cc(ccc31)N1CCOC(CC(NC(=O)C(C(C)C)N(C)C(=O)C3(F)CCN(C(=O)C#CC(C)(C)N(C)C)CC3)C(=O)N3CCCC(N3)C(=O)OCC(C)(C)C2)C1
viability, T/C (second compound 0.000949 µM, first compound 0.00316 µM): 111% | viability, T/C (second compound 0.000949 µM, first compound 0.01 µM): 98.5% | viability, T/C [1]: 88.2% | viability, T/C [2]: 113% | viability, T/C [3]: 93.8% | viability, T/C [4]: 79.2% | viability, T/C (second compound 0.003 µM, first compound 0.00316 µM): 115% | viability, T/C (second compound 0.003 µM, first compound 0.01 µM): 93.2% | viability, T/C [5]: 99.8% | viability, T/C [6]: 84.8% | viability, T/C [7]: 95.4% | viability, T/C [8]: 86.7% | viability, T/C (second compound 0.00949 µM, first compound 0.00316 µM): 103% | viability, T/C (second compound 0.00949 µM, first compound 0.01 µM): 87% | viability, T/C [9]: 79.5% | viability, T/C [10]: 76% | viability, T/C [11]: 93.1% | viability, T/C [12]: 83.9% | viability, T/C (second compound 0.03 µM, first compound 0.00316 µM): 98.6% | viability, T/C (second compound 0.03 µM, first compound 0.01 µM): 110% | viability, T/C [13]: 97.5% | viability, T/C [14]: 92.7% | viability, T/C [15]: 78% | viability, T/C [16]: 99.8% | viability, T/C (second compound 0.0949 µM, first compound 0.00316 µM): 86.6% | viability, T/C (second compound 0.0949 µM, first compound 0.01 µM): 93.5% | viability, T/C [17]: 92.6% | viability, T/C [18]: 86.9% | viability, T/C [19]: 87% | viability, T/C [20]: 90.5% | viability, T/C (second compound 0.3 µM, first compound 0.00316 µM): 85.7% | viability, T/C (second compound 0.3 µM, first compound 0.01 µM): 87.3% | viability, T/C [21]: 89.2% | viability, T/C [22]: 75.7% | viability, T/C [23]: 95.1% | viability, T/C [24]: 81.7%
